# Laboratory results as given in patent publication US20250108100A1, “C-TERMINAL FRAGMENT OF APOLIPOPROTEIN E AND APPLICATION THEREOF IN INHIBITING y-SECRETASE ACTIVITY” (SYNPHATEC (SHANGHAI) BIOPHARMACEUTICAL TECHNOLOGY CO., LTD., priority 2022, published 2025).
# “Also recorded” adds a separate entry of the source.
# Assays:
# Format in all cases: cell-based
# [1] = tested on: APP co-expressed in mouse neuron cell line N2A; test: α-CTF produced by APP co-expressed in N2A cells (Western blot); conditions: Western blot, vs GFP control
# Protocol: (§1) Plasmids were transfected in HEK 293T or N2A cells for 36-48 hours and then lysed in cell lysis buffer [10% 1M tris-HCl (pH=6.8), 4% SDS, 20% glycerol, 0.01% bromophenol blue]. Lysates were shaken at room temperature for 10 min, then boiled for 10 min, and centrifuged at 12,000×g for 10 min. Proteins were run on 8% or 12% Tris-glycine SDS-PAGE and transferred to PVDF membranes (Life Technologies). Samples were incubated overnight at 4° C. with primary antibody diluted in 5% BSA buffer (in 1×TBST). After washing 3 times with 1×TBST, they were incubated with secondary antibody diluted in 5% BSA buffer (in 1×TBST) for 2 hours at room temperature. Finally, after washing 3 times with 1×TBST, the signal was detected by ECL Western blotting substrate (Solarbio, PE0010).
# (§2) Data were analyzed by GraphPad Prism software (v6) using unpaired, paired, or one-sample t-tests. Aβ40 and Aβ42 levels were normalized to the corresponding GFP controls. α-CTF levels were normalized to FL-APP and corresponding GFP controls. All data are represented as mean±SEM. Statistical significance was defined as p<0.05. One, two, three and four stars (*) in the graph indicate p-values <0.05, <0.01, <0.001 and <0.0001, respectively.
# [2] = tested on: human APP co-expressed in HEK 293T cells; test: α-CTF produced by APP co-expressed in HEK 293T cells (Western blot); conditions: Western blot, vs GFP control
# Protocol: • a) A plasmid expressing the target protein in mammalian cells was constructed, and the protein expression promoter is CAG. • b) The target protein was expressed in HEK 293T cell line. Cells were subcultured one day before transfection, and transfection was performed when the degree of cell adhesion reached 70%-80%. The transfection reagent was lipofectamine2000 (ThermoFisher). • c) 4-6 hours post transfection, the medium were replaced with fresh cell culture medium. • d) 36-48 hours post transfection, the cells were lysed (10% 1M tris-HCl (pH=6.8), 4% SDS, 20% glycerol, 0.01% bromophenol blue), and the protein samples were collected and used for Western blot or stored in a −80° C. freezer. • e) Polyacrylamide gel electrophoresis. Before protein loading, the protein was boiled at 98° C. for 10 min, and then centrifuged at 12000 rpm for 10 min. Electrophoresis: 80V for the upper stacking gel; 120V for the lower separating gel. • f) Protein transfer. The filter paper was soaked in the electrophoresis solution before use, and the PVDF membrane was put in methanol for 10s to activate, and the gel after electrophoresis was taken out from the electrophoresis tank, put in the order of filter paper—PVD membrane—gel-filter paper from bottom to top, and they were put into the transfer instrument, with transferring in constant current at 0.1 A for 70 min. • g) Blocking and antibody incubation: the transferred PVDF membrane was placed in 5% BSA/TBST blocking solution, and blocked on a shaker at room temperature for 1 hour. The primary antibody was used to incubate at 4° C. overnight on a shaker (12-16 h); 1×TBST was used to wash three times, once every 10 minutes; the secondary antibody was used to incubate, shaked at room temperature for 1-2 h; 1×TBST was used to wash three times, once every 10 minutes. • h) Imaging by development: development was performed with ECL chemiluminescence hypersensitive chromogenic reagent.
# as §1, §2
# [3] = tested on: human APP and β-secretase co-expressed in HEK 293T cells; test: HEK 293T cells co-expressing APP and β-secretase (BACE1): Aβ ELISA and β-CTF Western blot; conditions: APP and β-secretase co-expressed, ELISA, vs GFP control
# Protocol: The experiment was performed according to the standard procedure in the ELISA analysis kit of Invitrogen Company. • a) The target protein was expressed in HEK 293T cell line. Cells were subcultured one day before transfection, and transfection was performed when the degree of cell adhesion reached 70%-80%. The transfection reagent was lipofectamine2000 (ThermoFisher). • b) 4-6 hours post transfection, medium were replaced with fresh cell culture medium. • c) 36-48 hours post transfection, the cell culture medium was collected, and then the ELISA process was performed or the cell culture medium was frozen in a −80° C. refrigerator. • d) 50 μl of standard samples and experimental samples were added to each well of the 96-well plate. • e) 50 μl of human-derived Aβ40 or Aβ42 or mouse-derived Aβ40 detection antibody was added to each well of the 96-well plate. • f) The above samples were shaken gently and placed at room temperature for 3 hours. • g) The liquid in the well were removed, and the plate was washed 4 times with 1× wash buffer. • h) 100 μl of the buffer containing 1× anti-Rabbit IgG HRP was added. • i) The plate was shaken gently and placed at room temperature for […]. • j) The liquid in the well were removed, and the well was washed 4 times with 1× wash buffer. • k) 100 μl of Stabilized Chromogen was added to each well, and the plate was placed in the dark for 30 minutes at room temperature. • l) 100 μl of Stop Solution was added to each well. • m) The absorbance at 450 nm was measured with a microplate reader. 2.4 qRT-PCR
# 48 hours after transfection of HEK 293T cells and N2A cells, or 4.5 days after lentivirus infection of neurons, media and lysates were collected. Aβ40 and Aβ42 in the culture medium and cell lysates were detected by an Aβ ELISA kit as indicated in the protocol. (Invitrogen Technology; KHB3481 for human Aβ40, KHB3441 for human Aβ42 and KMB3481 for mouse Aβ40).
# as §2
substance,measurement,setting,value
"ApoE2: human apolipoprotein E2, full-length 299 amino acid residues, SEQ ID NO: 12",α-CTF produced by co-expressed APP,[1],significantly increased the α-CTF levels
same,α-CTF produced by co-expressed APP,[2],can significantly increase α-CTF; also recorded: significantly increased the α-CTF levels
same,production of Aβ40,[3],significantly reduces production of Aβ40; also recorded: is reduced; also recorded: significantly reduced Aβ40 levels
